Test results taken from US6746688B1, “Apparatus for the transdermal treatment of Parkinson's disease” (Neuroderm Ltd., priority 1996, dated 2004).
Like-named read-outs stand apart in the source and are kept apart here.

Tests used:
[1] = Solubility of LD derivatives in potential solvents; format: physicochemical
Description: The solubility of LD, LD methyl ester (LDME) and LD ethyl ester (LDEE) was examined in several potential solvents, with increasing amounts of the three LD derivatives being added to a constant volume of 5% propionic acid in water or 10% propionic acid in propylene glycol.

Parkinson's disease = conditions: Refs. 19-21; cited from earlier work
[2] = Pilot experiment of transdermal delivery, LDEE in serum by HPLC with electrochemical detector; format: in vivo; conditions: two human volunteers, 24 h dermal exposure, propylene glycol with 10% propionic acid and 5% sodium deoxycholate or sodium dodecylsulfate
Protocol: In a pilot experiment of transdermal delivery, two human volunteers were exposed for 24 h to LDEE dissolved in propylene glycol containing 10% propionic acid and 5% of either sodium deoxycholate (one volunteer) or sodium dodecylsulfate (one volunteer). Blood samples were taken at various times after the application of the LDEE on the skin and LDEE in the serum was separated on high performance liquid chromatography and determined with an electrochemical detector. The protocol and the details of this pilot study are described in the enclosed appendix. […] These levels are considered appropriate for obtaining therapeutic effect in Parkinson's patients.

[3] = Stability of LDEE in formulations by thin layer chromatography; format: physicochemical
Protocol: The stability of LDEE was tested in several combinations of potential components of the formulation. For this purpose, 500 mg LDEE was dissolved in 1 ml 5% propionic acid just before the beginning of the stability experiment. In parallel, 500 mg LDEE was dissolved in 1 ml propylene glycol containing 10% propionic acid. These preparations of LDEE were used as stock solutions for several tested formulations as follows: […]
1) LDEE in aqueous solution of 5% propionic as prepared above.
2) Same solution as in No. 1 above+5% sodium deoxycholate.
3) Same solution as in No. 1 above+5% sodium dodecylsulfate.
4) Same solution as in No. 1 above+5% Tween-20.
5) Same solution as in No. 1 above+5% tritonX100.
6) Same solution as in No. 1 above+glycerol at a ratio of 1:1.
7) Same solution as in No. 1 above+propylene glycol at a ratio of 2:1.
8) LDEE in propylene glycol containing 10% propionic acid.
9) Same solution as in No. 8 above+5% sodium deoxycholate.
10) Same solution as in No. 8 above+5% sodium dodecylsulfate.
The above LDEE formulations were run on a thin layer chromatography (on silica gel—Merk Art. 5735; and on cellulose—Merk Art. 5574) for a qualitative detection of LDEE and its degradative products. The various LDEE formulations were kept at room temperature for several days and separation of the LDEE and its degradative products on the thin layer chromatography were repeated at various times after dissolving the LDEE. The running solvents for the thin layer chromatography were:
a) Propanol: Butanoic Acid: Water (20:4:10).
b) Dichloromethane: Acetone: Ethyl-Acetate: Methanol (35:15:1:0.25).

solubility [1] | blood levels of LDEE after dermal application [2] | degradative products on thin layer chromatography ([3]; 24 h after dissolving, room temperature, formulations that contained tritonX100) | degradative products on thin layer chromatography ([3]; 24 h after dissolving, room temperature, other formulations (without tritonX100)) | degradative products on thin layer chromatography ([3]; 48 h after dissolving, room temperature, all the aqueous solutions) | degradative products on thin layer chromatography ([3]; immediately after the preparation, all formulations) | time LDEE was stable ([3]; propylene glycol-based formulations, room temperature) | solubility ([1]; 5% propionic acid in water) | solubility ([1]; 10% propionic acid in propylene glycol) | Structure (SMILES) | LD plasma levels at which therapeutic effects were noticed (Parkinson's disease) [ng/mL] | order of degradation among aqueous formulations ([3]; 48 h after dissolving, room temperature, aqueous solutions)
negligible amounts |  |  |  |  |  |  |  |  | N[C@@H](Cc1ccc(O)c(O)c1)C(=O)O [LD, Levodopa] | 300 to 800 | 
at least 660 mg in 1 ml | about 200 ng/ml | Degradative products appeared | did not show significant degradation | degradative products appeared | No degradative products were seen | more than 48 h |  |  | CCOC(=O)[C@@H](N)Cc1ccc(O)c(O)c1 [LDEE, levodopa-ethyl-ester] |  | formulation containing tritonX100>formulation containing Tween-20 >formulation containing sodium dodecylsulfate=formulation containing sodium deoxycholate
 |  |  |  |  |  |  | negligible amounts | negligible amounts | COC(=O)[C@@H](N)Cc1ccc(O)c(O)c1 [LDME, LD methyl ester] |  | 
